Data on three compounds can be found in PMC7504721, “Targeting the Initiator Protease of the Classical Pathway of Complement Using Fragment-Based Drug Discovery” (Molecules, 2020).

This assay concerns the target T1, full-length C1r (Homo sapiens, UniProt P00736).
T1 construct: purchased Complement Technology (CompTech)
T1 sequence (P00736 18-463 limits assumed): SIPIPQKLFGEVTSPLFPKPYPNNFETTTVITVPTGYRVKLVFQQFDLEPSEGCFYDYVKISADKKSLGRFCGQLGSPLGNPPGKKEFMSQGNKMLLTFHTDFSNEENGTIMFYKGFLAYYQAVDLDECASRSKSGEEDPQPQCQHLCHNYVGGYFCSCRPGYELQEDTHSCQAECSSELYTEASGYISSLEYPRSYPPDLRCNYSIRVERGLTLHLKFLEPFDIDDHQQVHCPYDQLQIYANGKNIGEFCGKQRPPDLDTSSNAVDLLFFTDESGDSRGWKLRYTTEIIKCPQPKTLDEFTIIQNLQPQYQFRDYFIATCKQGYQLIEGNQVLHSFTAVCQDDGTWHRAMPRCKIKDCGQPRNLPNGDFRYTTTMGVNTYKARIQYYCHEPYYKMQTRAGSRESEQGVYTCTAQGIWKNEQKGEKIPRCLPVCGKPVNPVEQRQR
T1 sequence (P00736 464-705 limits assumed): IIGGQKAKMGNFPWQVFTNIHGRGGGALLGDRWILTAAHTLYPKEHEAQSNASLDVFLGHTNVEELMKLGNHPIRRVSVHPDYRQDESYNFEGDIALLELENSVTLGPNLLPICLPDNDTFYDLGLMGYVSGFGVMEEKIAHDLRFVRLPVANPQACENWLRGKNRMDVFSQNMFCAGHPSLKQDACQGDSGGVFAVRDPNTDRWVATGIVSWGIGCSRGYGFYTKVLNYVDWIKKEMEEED
The assay can be described thus: SPR dose-dependent binding, steady-state affinity. Conditions: for Kd: 1:1 steady-state binding model, mean ± S.D. from three independent injection series, 25 °C; for Ligand efficiency (LE): LE = ΔG/number of non-hydrogen atoms, ΔG = -RT x ln KD,C1r, using KD values of Fig. 3. The method, then: All SPR experiments were carried out using a Biacore T200 (GE Healthcare, Chicago, IL, USA) at 25 °C. For all experiments, a running buffer (HBS-T) of 20 mM HEPES (pH 7.3), 140 mM NaCl, 0.005% (v/v) Tween-20, 5% DMSO (v/v) was used. For each experiment, DMSO calibration curves ranging from 4% to 5.5% DMSO (v/v) were collected at the beginning, end, and every 50 cycles throughout the duration of the experiment. All experiments were performed using HC1500M sensor chips (Xantec, Duesseldorf, Germany). In total, 10 sensor chips and 16 ligand immobilized surfaces were created over the course of this study (detailed in Table S2). In all cases, C1r proteins were immobilized onto chip surfaces using amine-coupling chemistry with 1-ethyl-3-(3-dimethylaminopropyl)-carbodiimide) (EDC), N-hydroxysuccinimide (NHS), followed by ethanolamine. Briefly, 100 mM of EDC and NHS were mixed and injected to activate the chip surface followed by the C1r protein ligand captured at a defined resonance unit (RU) level, followed by reaction quenching with 100 mM ethanolamine pH 8.5. Flow cell 1 was always used as a reference cell (no ligand), unless otherwise noted. All sensorgrams were reference and blank subtracted and analyzed using T200 Evaluation Software (GE Healthcare, Chicago, IL, USA).
To further evaluate hit compounds from the initial SPR screen, dose-dependent SPR binding assays were carried out. Three replicate flow cells were used containing both low and high immobilization densities of C1r (see Table S2). Hit compounds were tested for dose-dependent binding to full-length C1r using a compound concentration range of 7.8–500 µM. T200 evaluation software was used to calculate steady-state affinities for each compound by fitting sensorgrams from each variable concentration injection dataset using a 1:1 Langmuir model of interaction constrained by a theoretical experimental binding response based on the mol. wt. of each compound and derived as stated above. KD values are reported as the mean ± the standard deviation from at least three independent measurements.

Broadly, the Kd is the concentration at which binding is half-saturated. Higher therefore signals a looser complex. For the compound `CN(C)c1cc(N2CCCC(N)C2)ncn1` (centres unmarked) [CMP-1611], binding was put at a Kd of 480 µM and the “Ligand efficiency (LE)” value was 0.28. On to `COCc1nc(-c2ccc(OC3CNC3)cc2)no1` [CMP-1696], for which the Kd is 670 µM and the “Ligand efficiency (LE)” value was 0.22. In the case of `N=C(N)c1ccc2cc(OC(=O)c3ccc(N=C(N)N)cc3)ccc2c1` [Futhan, reference compound], the Kd came out at 11 µM.
